Data from patent US20130303507A1 (Novartis AG, priority 2011, published 2013).

biological target: Cdk9/cyclinT1 (Homo sapiens, UniProt P50750); assay: Cdk9/cyclinT1 Alpha Screen protocol; assay type: biochemical; set-up: Full length wild type Cdk9/cyclin T1 is purchased from Invitrogen; purchased Invitrogen PV4131; conditions: neutral species; individual determinations; read-out: CDK9_cyclinT1_AS2_IC50
Method: Cdk9/cyclinT1 Alpha Screen Protocol
Full length wild type Cdk9/cyclin T1 is purchased from Invitrogen, cat#PV4131. […] The cdk7tide peptide substrate, biotin-[…] -OH, is a custom synthesis purchased from the Tufts University Core Facility. The final concentration of cdk7tide peptide substrate is 200 nM. […] Phospho-Rpb1 CTD (ser2/5) substrate antibody is purchased from Cell Signaling Technology. The final concentration of antibody is 0.67 ug/ml. The Alpha Screen Protein A detection kit containing donor and acceptor beads is purchased from PerkinElmer Life Sciences. The final concentration of both donor and acceptor beads is 15 ug/ml. Alpha Screen is used for detection. […] The biotinylated-cdk7tide peptide substrate is bound to the streptavidin coated donor bead. The antibody is bound to the protein A coated acceptor bead. The antibody will bind to the phosphorylated form of the biotinylated-cdk7tide peptide substrate, bringing the donor and acceptor beads into close proximity. Laser irradiation of the donor bead at 680 nm generates a flow of short-lived singlet oxygen molecules. When the donor and acceptor beads are in close proximity, the reactive oxygen generated by the irradiation of the donor beads initiates a luminescence/fluorescence cascade in the acceptor beads. This process leads to a highly amplified signal with output in the 530-620 nm range. Assays are carried out in 50 mM Hepes, pH=7.5, 10 mM MgCl2, 0.1% Bovine Serum Albumin, 0.01% Tween-20, 1 mM Dithiothreitol, 2.5% Dimethyl Sulfoxide. Stop and detection steps are combined using 50 mM Hepes, pH=7.5, 18 mM EDTA, 0.1% Bovine Serum Albumin, 0.01% Tween-20.

Chain of Cdk9/cyclinT1 (P50750 whole entry): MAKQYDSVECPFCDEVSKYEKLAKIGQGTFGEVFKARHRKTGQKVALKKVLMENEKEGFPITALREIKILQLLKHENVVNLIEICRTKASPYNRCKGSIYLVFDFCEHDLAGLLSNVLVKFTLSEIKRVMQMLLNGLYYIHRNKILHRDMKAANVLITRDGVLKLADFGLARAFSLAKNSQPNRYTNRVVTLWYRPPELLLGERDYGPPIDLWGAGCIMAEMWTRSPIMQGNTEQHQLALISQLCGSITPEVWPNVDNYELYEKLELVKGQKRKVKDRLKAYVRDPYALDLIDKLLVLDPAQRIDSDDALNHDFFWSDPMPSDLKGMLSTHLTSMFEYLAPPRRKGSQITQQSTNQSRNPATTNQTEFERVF
Chain of Cdk9/cyclinT1 (O60563 whole entry partner): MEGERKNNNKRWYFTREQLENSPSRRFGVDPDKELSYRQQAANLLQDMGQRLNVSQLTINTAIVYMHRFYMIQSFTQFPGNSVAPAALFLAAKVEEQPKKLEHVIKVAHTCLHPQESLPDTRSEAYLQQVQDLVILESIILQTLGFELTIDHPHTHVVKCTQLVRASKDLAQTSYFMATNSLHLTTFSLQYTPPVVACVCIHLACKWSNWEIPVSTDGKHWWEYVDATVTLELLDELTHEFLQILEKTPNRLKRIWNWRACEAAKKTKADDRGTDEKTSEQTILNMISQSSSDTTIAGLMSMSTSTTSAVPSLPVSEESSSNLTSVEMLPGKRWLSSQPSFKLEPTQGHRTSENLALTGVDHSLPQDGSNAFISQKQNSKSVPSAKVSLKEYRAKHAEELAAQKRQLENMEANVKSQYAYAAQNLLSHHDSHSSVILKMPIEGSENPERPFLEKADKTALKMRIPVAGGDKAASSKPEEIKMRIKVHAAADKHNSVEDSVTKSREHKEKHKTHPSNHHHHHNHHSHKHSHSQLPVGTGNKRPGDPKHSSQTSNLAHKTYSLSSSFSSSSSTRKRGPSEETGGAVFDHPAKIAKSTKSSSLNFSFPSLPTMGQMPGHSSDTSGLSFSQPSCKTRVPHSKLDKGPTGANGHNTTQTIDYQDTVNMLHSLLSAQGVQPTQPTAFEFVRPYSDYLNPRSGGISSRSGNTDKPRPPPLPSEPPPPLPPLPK

Compound	IC50 [nM]
COC[C@@H](C)N[C@H]1CC[C@@H](Nc2cc(-c3cccc(NCC4(C#N)CCOCC4)n3)c(Cl)cn2)CC1 [Compound 601]	25
COC[C@H](C)N[C@H]1CC[C@@H](Nc2cc(-c3cccc(NCC4(C#N)CCOCC4)n3)c(Cl)cn2)CC1 [Compound 602]	8.1

Next, values leading:

IC50 [nM]	Compound
1	[2H]C([2H])([2H])OC[C@H](C)N[C@H]1CC[C@H](Nc2cc(-c3cncc(OCC4(C#N)CCOCC4)n3)c(Cl)cn2)CC1 [Compound 598]
< 1	[2H]C([2H])([2H])OC[C@@H](C)N[C@H]1CC[C@H](Nc2cc(-c3cncc(OCC4(C#N)CCOCC4)n3)c(Cl)cn2)CC1 [Compound 599]
5.6	COCC(C)N[C@H]1CC[C@@H](Nc2cc(-c3cccc(NCC4(C#N)CCOCC4)n3)c(Cl)cn2)CC1 (stereo partly drawn) [Compound 603]

test system: neointima formation; assay: not given; conditions: in rats; cited from earlier work

Compound	inhibition of neointima formation
COc1ccc(CNc2nc(N(CCO)CCO)nc3c2ncn3C(C)C)cc1 [CVT-313]	greater than 80%
